The assay addresses T1, NMDA receptor glycine site (Rattus norvegicus, UniProt P35439).
T1 construct: fresh brain tissue including cerebral cortex and hippocampus from male Sprague Dawley rats was homogenized; tissue Analytical Biological Services Inc; host or cells: rat brain membranes (cerebral cortex and hippocampus, male Sprague Dawley rats)
As to the kind of experiment: Test A: Inhibition of binding of [3H]-MDL105,519 to brain membranes. The text has this: Test A: Inhibition of Binding of [^3H]-MDL105,519:
Binding of compounds to the NMDA receptor glycine site may be assessed by measuring the ability of test compounds to inhibit the binding of tritiated MDL105,519 to brain membranes bearing the receptor.
Briefly, fresh brain tissue including cerebral cortex and hippocampus from male Sprague Dawley rats was homogenized in 0.32 M sucrose and centrifuged at low speed to separate cellular membranes from other cellular components. The membranes were then washed 3 times using deionized water, followed by treatment with 0.04% Triton X-100. Finally, membranes were washed six times in 50 mM Tris citrate buffer, pH 7.4, and frozen at −80° C. until use.
[^3H]MDL105,519 (72 Ci/mmol) was purchased from Amersham. Cold MDL105,519 was purchased from Sigma/RBI. […] On the day of the experiment, brain membranes were thawed at room temperature and suspended in 50 mM tris acetate buffer, pH 7.4 (“TAB”). Seventy-five micro grams per milliliter protein (by using the BioRad dye) were used for competition binding. The experiments were carried out using 96-well plates. […] Non specific binding was determined by using 100 μM of unlabeled MDL105,519. […] After incubation, unbound [^3H]ML105,519 was removed by filtration onto GF/B Unifilter plates using a Packard harvester. Filters were washed four times with ice cold TAB (total of 1.2 mL buffer). The plates were dried overnight at room temperature and bound radioactivity was measured on a Packard TopCount after the addition of 45 μL per well of the MICROSCINT O.
Human Brain Membranes: Human brain membranes were obtained from Analytical Biological Services Inc., and assays were performed as described for rat membranes.
Data analysis: Data was analyzed using a Microsoft Excel spreadsheet and GraphPad Prizm software and potency of compounds is expressed as the Ki (nM).

Setting [1] is: inhibition of [3H]-MDL105,519 binding to brain membranes, 1.2 nM radioligand, 30 minutes at room temperature.

Among the data in patent US6946463B2, “1,2,5,10-tetrahydropyridazino[4,5-b]quinoline-1,10-diones and their use for the treatment of pain” (Astrazeneca AB, priority 2000, dated 2005) are Ki values, retold here.

Counter-ions that a name gives are not always drawn. Like-named read-outs stand apart in the source and are kept apart here.

In turn, `O=c1c2ccc(Cl)cc2[nH]c2c(O)nn(C(c3ccccn3)C3CC3)c(=O)c12` (racemic) [Ex. 1, (+/−)-7-Chloro-4-hydroxy-2-(1-cyclopropyl-1-pyrid-2-yl)methyl-1,2,5,10-tetrahydropyridazino[4,5-b]quinoline-1,10-dione] showed an inhibition constant (Ki) under setting [1] of 0.996 µM. With `O=c1[nH]n(C(c2ccccn2)C2CCCC2)c(=O)c2c(O)c3ccc(Cl)cc3nc12` (racemic) [Ex. 3, (+/−)-7-Chloro-4-hydroxy-2-(1-cyclopentyl-1-pyrid-2-yl)methyl-1,2,5,10-tetrahydropyridazino[4,5-b]quinoline-1,10-dione hydrochloride], the Ki (inhibition of [3H]-MDL105,519 binding to brain membranes, bound in μM) was greater than 10 µM.

On to `O=c1c2ccc(Cl)cc2[nH]c2c(O)nn(C(c3ccccc3)c3ccncc3)c(=O)c12` (racemic) [Ex. 4, (+/−)-7-Chloro-4-hydroxy-2-(1-phenyl-1-pyrid-4-yl)methyl-1,2,5,10-tetrahydropyridazino[4,5-b]quinoline-1,10-dione], for which the inhibition constant Ki under setting [1] is 3.69 µM.

Turning to `Cc1cnccc1C(C)n1nc(O)c2[nH]c3cc(Cl)ccc3c(=O)c2c1=O` (racemic) [Ex. 5, (+/−)-7-Chloro-4-hydroxy-2-(1-(3-methylpyrid-4-yl))ethyl-1,2,5,10-tetrahydropyridazino[4,5-b]quinoline-1,10-dione], the Ki was 0.907 µM. On the same count and under the same terms, to `Cc1cccnc1C(C)n1nc(O)c2[nH]c3cc(Cl)ccc3c(=O)c2c1=O` (racemic) [Ex. 7, (+/−)-7-Chloro-4-hydroxy-2-(1-methyl(3-methylpyrid-2-yl)methyl)-1,2,5,10-tetrahydropydridazino[4,5-b]quinoline-1,10-dione methanesulfonate] belongs 1.78 µM; to `Cc1cc(C(C)n2nc(O)c3[nH]c4cc(Cl)ccc4c(=O)c3c2=O)ccn1` (racemic) [Ex. 8, (+/−)-7-Chloro-4-hydroxy-2-(1-methyl(2-methylpyrid-4-yl)methyl)-1,2,5,10-tetrahydropyridazino[4,5-b]quinoline-1,10-dione methanesulfonate], 0.228 µM; to `CC(c1cccc[n+]1[O-])n1nc(O)c2[nH]c3cc(Cl)ccc3c(=O)c2c1=O` (racemic) [Ex. 10, (+/−)-7-Chloro-4-hydroxy-2-(1-pyrid-2-yl-N-oxide)ethyl-1,2,5,10-tetrahydropyridazino[4,5-b]quinoline-1,10-dione], 2.57 µM. Turning to `CC(c1cc[n+]([O-])cc1)n1[nH]c(=O)c2nc3cc(Cl)ccc3c(O)c2c1=O` (racemic) [Ex. 11, (+/−)-7-Chloro-4-hydroxy-2-(1-pyrid-4-yl-N-oxide)ethyl-1,2,5,10-tetrahydrpyridazino[4,5-b]quinoline-1,10-dione], the affinity corresponds to a Ki of 2.42 µM.

What is called Ki is a dissociation constant, usually derived from enzyme kinetics or from competition with a known ligand. High values mean a looser hold on the target, low ones a stronger hold on the target.
